Patent US5270342A, “Acetamide derivatives” (Imperial Chemical Industries PLC, priority 1990, dated 1993)

Experiments:
[1] = target: T1, aldose reductase (Bos taurus, UniProt P16116); assay: inhibition in vitro of partially purified aldose reductase isolated from bovine lenses (spectrophotometric); type: biochemical; conditions: bovine lens aldose reductase
T1 construct: partially purified aldose reductase is isolated in known manner from bovine lenses; from tissue; host or cells: bovine lenses
Excerpt: Thus, in a standard procedure partially purified aldose reductase is isolated in known manner from bovine lenses. The percentage inhibition of this enzyme's ability in vitro to catalyse the reduction of aldoses to polyhydric alcohols, and particularly to reduce glucose to sorbitol, caused by a test compound can then be determined using standard spectrophotometric methods.

[2] = system: aldose reductase; assay: reduction of sciatic nerve sorbitol in streptozotocin-diabetic rats (inhibition of aldose reductase in vivo); set-up: species or system rat; conditions: 5 daily oral doses of 3 mg/kg
Experimental: Rats are made diabetic (as evidenced by severe glucosuria being present) by dosing with streptozotocin. The animals are then dosed daily with the test compound for one, two or five days. The animals are then sacrificed 2-6 hours after the final dose and the eye lenses and/or sciatic nerves are removed. After a standard work-up procedure the residual sorbitol levels in each tissue are determined by gas liquid chromatography after conversion to the polytrimethylsilyl derivatives. Inhibition of aldose reductase in vivo can then be assessed by comparing the residual sorbitol levels in tissues from the dosed diabetic group of rats with those of an undosed group of diabetic rats and an undosed group of normal rats.
In a variation of the above test diabetic rats are dosed at a fixed daily oral dose for five days and then sacrificed 6 hours after the final dose and the reduction of sciatic nerve sorbitol assessed relative to that in control animals.

IC50 [1]: 118 nM
SMILES: Cc1cc(NC(=O)Cc2ccccc2)cc(C)c1S(=O)(=O)C[N+](=O)[O-] [Example 1, (2,6-dimethyl-4-[phenylacetamido]phenylsulfonyl)nitromethane]
reduction in sciatic nerve sorbitol levels [2]: 83%
